Experiments:
[1] = test system: platelet thrombus (laser micro-injury of small blood vessel); test: biolaser model of experimental thrombosis (rabbit ear chamber); format: in vivo; details: combined with anagrelide at a lower than threshold level
From the text: These compounds were studied in vivo in an animal model for experimental thrombosis. The use of this model is described in detail in the reprint, Use of the Biolaser in the Evaluation of Anti-Thrombotic Agents, J. S. Fleming et al. "Platelets and Thrombosis", eds. S. Sherry and A. Scriabrine, University Park Press, 1974, Baltimore, which is incorporated herein by reference.
In brief, a micro-injury is created by a laser beam focused through a microscope onto the endothelium surface of a small blood vessel in a surgically implanted ear chamber of a rabbit. The injury induces the rapid formation of a platelet thrombis which can be measured. […] Prostacyclin is active in the biolaser model when infused intraveneously. The results of these tests preliminarily indicate that there is a super additive interaction between anagrelide and the compounds of this invention. […] To date, no other compounds have undergone significant in vivo analysis in the rabbit ear test.

[2] = test system: platelet thrombus (laser micro-injury of small blood vessel); details: cited from earlier work; for inhibition of thrombosis (in words): general statement on potent inhibitors of platelet aggregation

SMILES	reduction in thrombosis, combination with anagrelide (in words) [1]	inhibition of thrombosis (in words) [2]	activity in the biolaser model (in words) ([2]; infused intravenously)
CCCCCC(O)C#CC1C2CCC(C2)C1C/C=C/CCCC(=O)OC (stereo not shown) [Example 2]	substantial reduction in thrombosis	–	–
O=C1CN2Cc3c(ccc(Cl)c3Cl)N=C2N1 [anagrelide]	–	significant inhibition of this kind of thrombosis	–
CCCCC[C@H](O)/C=C/[C@@H]1[C@H]2C/C(=C/CCCC(=O)O)O[C@H]2C[C@H]1O [prostacyclin]	–	significant inhibition of this kind of thrombosis	active

— patent US4436934A, “Bicyclic prostaglandin analogs and method of synthesis” (Iowa State University Research Foundation, Inc., priority 1981, dated 1984)
